Data taken from PubChem BioAssay AID1963846 (Molecular Pharmacology Branch, DTP, NCI, 2024).

Tested on: 454973-116-R2-J3-PDC complex spheroid viability
Test: Anticancer human tumor 454973-116-R2-J3-PDC patient-derived pancreatic carcinoma cell line growth inhibition [POLQ]
Conditions: for IC50: curve of first compound; for viability, T/C: stronger effect = lower value
In short: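 Three-cell-type spheroids modelling solid tumor plus stroma served as the readout system; POL inhibitors were tested individually and in combination, concentration ranges set by clinical Cmax where known.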

[1] = second compound 0.0316 µM, first compound 0.0316 µM
[2] = second compound 0.0316 µM, first compound 0.1 µM
[3] = second compound 0.0316 µM, first compound 0.316 µM
[4] = second compound 0.0316 µM, first compound 1 µM
[5] = second compound 0.0316 µM, first compound 3.16 µM
[6] = second compound 0.0316 µM, first compound 10 µM
[7] = second compound 0.1 µM, first compound 0.0316 µM
[8] = second compound 0.1 µM, first compound 0.1 µM
[9] = second compound 0.1 µM, first compound 0.316 µM
[10] = second compound 0.1 µM, first compound 1 µM
[11] = second compound 0.1 µM, first compound 3.16 µM
[12] = second compound 0.1 µM, first compound 10 µM
[13] = second compound 0.316 µM, first compound 0.0316 µM
[14] = second compound 0.316 µM, first compound 0.1 µM
[15] = second compound 0.316 µM, first compound 0.316 µM
[16] = second compound 0.316 µM, first compound 1 µM
[17] = second compound 0.316 µM, first compound 3.16 µM
[18] = second compound 0.316 µM, first compound 10 µM
[19] = second compound 1 µM, first compound 0.0316 µM
[20] = second compound 1 µM, first compound 0.1 µM
[21] = second compound 1 µM, first compound 0.316 µM
[22] = second compound 1 µM, first compound 1 µM
[23] = second compound 1 µM, first compound 3.16 µM
[24] = second compound 1 µM, first compound 10 µM
[25] = second compound 3.16 µM, first compound 0.0316 µM
[26] = second compound 3.16 µM, first compound 0.1 µM
[27] = second compound 3.16 µM, first compound 0.316 µM
[28] = second compound 3.16 µM, first compound 1 µM
[29] = second compound 3.16 µM, first compound 3.16 µM
[30] = second compound 3.16 µM, first compound 10 µM
[31] = second compound 10 µM, first compound 0.0316 µM
[32] = second compound 10 µM, first compound 0.1 µM
[33] = second compound 10 µM, first compound 0.316 µM
[34] = second compound 10 µM, first compound 1 µM
[35] = second compound 10 µM, first compound 3.16 µM
[36] = second compound 10 µM, first compound 10 µM
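Also: spheroids exposed to drugs for seven days before measurement.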
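For viability, T/C in this document: percent viability relative to DMSO vehicle control wells taken as 100%.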

COc1cccc2c1C(=O)c1c(O)c3c(c(O)c1C2=O)CC(O)(C(=O)CO)CC3OC1CC(N)C(O)C(C)O1 (stereo unspecified) + Nc1ccc(C#CCN(C(=O)Cc2ncc(C(F)(F)F)cc2C(F)(F)F)c2ccc(F)cc2)nn1
IC50 (second compound 0.0316 µM): 37.4 nM
IC50 (second compound 0.1 µM): 36 nM
IC50 (second compound 0.316 µM): < 31.6 nM
IC50 (second compound 1 µM): < 31.6 nM
IC50 (second compound 3.16 µM): 32.2 nM
IC50 (second compound 10 µM): < 31.6 nM
viability, T/C [1]: 55.6%
viability, T/C [2]: 19.3%
viability, T/C [3]: 15.8%
viability, T/C [4]: 5.05%
viability, T/C [5]: 0.67%
viability, T/C [6]: 0.12%
viability, T/C [7]: 54.4%
viability, T/C [8]: 20.7%
viability, T/C [9]: 14.5%
viability, T/C [10]: 6.06%
viability, T/C [11]: 1.06%
viability, T/C [12]: 0.39%
viability, T/C [13]: 50.5%
viability, T/C [14]: 20.4%
viability, T/C [15]: 11.7%
viability, T/C [16]: 4.87%
viability, T/C [17]: 0.69%
viability, T/C [18]: 0.21%
viability, T/C [19]: 49.6%
viability, T/C [20]: 19.9%
viability, T/C [21]: 16.4%
viability, T/C [22]: 4.25%
viability, T/C [23]: 0.36%
viability, T/C [24]: 0.66%
viability, T/C [25]: 51.6%
viability, T/C [26]: 17.8%
viability, T/C [27]: 14.6%
viability, T/C [28]: 3.6%
viability, T/C [29]: 0.55%
viability, T/C [30]: 0.26%
viability, T/C [31]: 48.2%
viability, T/C [32]: 12.7%
viability, T/C [33]: 10.2%
viability, T/C [34]: 3.36%
viability, T/C [35]: 0.54%
viability, T/C [36]: 0.27%

Nc1ccn(C2OC(CO)C(O)C2(F)F)c(=O)n1 (stereo unspecified) + Nc1ccc(C#CCN(C(=O)Cc2ncc(C(F)(F)F)cc2C(F)(F)F)c2ccc(F)cc2)nn1
IC50 (second compound 0.0316 µM): < 31.6 nM
IC50 (second compound 0.1 µM): < 31.6 nM
IC50 (second compound 0.316 µM): < 31.6 nM
IC50 (second compound 1 µM): < 31.6 nM
IC50 (second compound 3.16 µM): < 31.6 nM
IC50 (second compound 10 µM): < 31.6 nM
viability, T/C [1]: 6.99%
viability, T/C [2]: 8.25%
viability, T/C [3]: 7.01%
viability, T/C [4]: 6.38%
viability, T/C [5]: 8.02%
viability, T/C [6]: 5.63%
viability, T/C [7]: 8.85%
viability, T/C [8]: 7.54%
viability, T/C [9]: 7.93%
viability, T/C [10]: 6.21%
viability, T/C [11]: 7.06%
viability, T/C [12]: 5.26%
viability, T/C [13]: 7.49%
viability, T/C [14]: 6.66%
viability, T/C [15]: 6.67%
viability, T/C [16]: 7.27%
viability, T/C [17]: 6.52%
viability, T/C [18]: 5.87%
viability, T/C [19]: 9.44%
viability, T/C [20]: 6.21%
viability, T/C [21]: 6.52%
viability, T/C [22]: 6.07%
viability, T/C [23]: 6.68%
viability, T/C [24]: 5.65%
viability, T/C [25]: 9.42%
viability, T/C [26]: 6.2%
viability, T/C [27]: 6.31%
viability, T/C [28]: 6.8%
viability, T/C [29]: 7.81%
viability, T/C [30]: 5.38%
viability, T/C [31]: 7.43%
viability, T/C [32]: 5.82%
viability, T/C [33]: 5.66%
viability, T/C [34]: 6.28%
viability, T/C [35]: 7.1%
viability, T/C [36]: 4.05%

O=C(c1cc(Cc2n[nH]c(=O)c3ccccc23)ccc1F)N1CCN(C(=O)C2CC2)CC1 + Nc1ccc(C#CCN(C(=O)Cc2ncc(C(F)(F)F)cc2C(F)(F)F)c2ccc(F)cc2)nn1
IC50 (second compound 0.0316 µM): > 10000 nM
IC50 (second compound 0.1 µM): > 10000 nM
IC50 (second compound 0.316 µM): 9690 nM
IC50 (second compound 1 µM): > 10000 nM
IC50 (second compound 3.16 µM): > 10000 nM
IC50 (second compound 10 µM): > 10000 nM
viability, T/C [1]: 101%
viability, T/C [2]: 101%
viability, T/C [3]: 90.8%
viability, T/C [4]: 91%
viability, T/C [5]: 95.1%
viability, T/C [6]: 58.9%
viability, T/C [7]: 101%
viability, T/C [8]: 101%
viability, T/C [9]: 102%
viability, T/C [10]: 102%
viability, T/C [11]: 83.5%
viability, T/C [12]: 62.2%
viability, T/C [13]: 102%
viability, T/C [14]: 105%
viability, T/C [15]: 103%
viability, T/C [16]: 98.2%
viability, T/C [17]: 90.5%
viability, T/C [18]: 48.2%
viability, T/C [19]: 104%
viability, T/C [20]: 105%
viability, T/C [21]: 114%
viability, T/C [22]: 102%
viability, T/C [23]: 97.4%
viability, T/C [24]: 54.6%
viability, T/C [25]: 111%
viability, T/C [26]: 112%
viability, T/C [27]: 102%
viability, T/C [28]: 99.9%
viability, T/C [29]: 101%
viability, T/C [30]: 59.7%
viability, T/C [31]: 117%
viability, T/C [32]: 113%
viability, T/C [33]: 113%
viability, T/C [34]: 112%
viability, T/C [35]: 101%
viability, T/C [36]: 57.2%
